Reference: BindingDB's records for doi:10.1038/nchembio.168 (University of New Mexico Health Sciences Center, 2009)

Target: Estrogen receptor beta (Mus musculus, UniProt O08537)
Test: Binding affinity to ERbeta receptor in mouse COS7 cells by competitive binding assay

Chain of Estrogen receptor beta (O08537 whole entry): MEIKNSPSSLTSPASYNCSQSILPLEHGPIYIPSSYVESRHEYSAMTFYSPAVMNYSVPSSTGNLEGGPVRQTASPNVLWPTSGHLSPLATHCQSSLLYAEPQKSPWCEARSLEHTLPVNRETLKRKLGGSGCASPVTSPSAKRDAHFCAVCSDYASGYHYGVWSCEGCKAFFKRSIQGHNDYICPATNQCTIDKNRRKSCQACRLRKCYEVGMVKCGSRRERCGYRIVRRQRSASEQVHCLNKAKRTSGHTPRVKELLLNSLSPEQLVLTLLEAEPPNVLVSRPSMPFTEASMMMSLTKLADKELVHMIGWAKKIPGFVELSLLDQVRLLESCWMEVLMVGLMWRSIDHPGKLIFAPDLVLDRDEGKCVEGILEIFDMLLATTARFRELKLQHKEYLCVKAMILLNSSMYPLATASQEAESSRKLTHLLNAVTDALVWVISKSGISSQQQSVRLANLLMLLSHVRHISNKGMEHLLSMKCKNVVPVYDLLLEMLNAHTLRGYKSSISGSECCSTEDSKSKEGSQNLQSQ

Ki: > 10 µM
Structure (SMILES): Brc1cc2c(cc1[C@@H]1Nc3ccccc3[C@@H]3C=CC[C@@H]31)OCO2
